Experimental data: patent US10583154B2, “Multi-dose compositions containing an antimicrobial polyamide or octenidine preservative” (priority 2016, dated 2020)

How the values were obtained:
wound healing = details: cited from earlier work
Candida albicans = assay: Antimicrobial preservative efficacy test (dilution neutralization), preservative as WFI solution; type: cell-based
From the text: (§1) Preservatives are commonly used in multi-dose formulations, including animal vaccines, to prevent bacterial or fungal growth in field conditions and are employed to minimize contamination of the formulations during repeated (non-sterile) punctures into the vial. Preservatives must pass antimicrobial effectiveness testing (AET), as described in the US pharmacopeia. As disclosed herein, Applicants performed the antimicrobial tests according to United States Pharmacopeia (USP), British Pharmacopeia (BP), and European Pharmocopeia (EP). Four test organisms were used: Candida albicans, Pseudomonas aeruginosa, Staphylococcus aureus, and A. brasiliensis. And while thimerosal and formol continue to play an important role in veterinary vaccines, European authorities encourage the development of vaccines that are free from those compounds.
(§2) For each concentration of polyamide polymer, dilution neutralization was carried out by inoculating 10 mL of test product with 100 μL of each test strain. Countings were performed at Do, 6 h (bacteria only), 24 h (bacteria only), D7, D14 and D28. For each counting, 1 mL of the sample was neutralized in 9 mL of neutralizing solution (10 minutes), for S. aureus, a second 1:10 dilution in the same solution. Then 1 mL of the mixture was transferred in Petri dishes and covered with 15 mL of agar medium (Trypcase Soy Agar for bacteria and Sabouraud Dextrosed Agar for yeasts and molds). The countings were achieved after 24-48 hours incubation at 32.5° C.±2.5° C. for bacteria, and 48-72 hours at 22.5° C.[…] for yeasts and molds. The test micro-organisms included Staphylococcus aureus, Pseudomonas aeruginosa, Candida albicans and Aspergillus brasiliensis. Finally, the neutralization solution contained: Tween 80 (10%), lecithin (2%), saponin (2%), sodium thiosulfate (0.5%) and buffered solution chloride. The saponin was from the bark of Quillaja saponaria.
(§3) For each concentration of octenidine, dilution neutralization was carried out as disclosed in Example 1.

Staphylococcus aureus = assay: as above; type: cell-based
From the text: as §1, §2, §3

Aspergillus brasiliensis = assay: as above; type: cell-based
From the text: as §1, §2, §3

Pseudomonas aeruginosa = assay: as above; type: cell-based
From the text: as §1, §2, §3

[1] = system: S. aureus, P. aeruginosa, C. albicans, A. brasiliensis; assay: Preservative efficacy in TS6 oil-in-water emulsion vaccine, overall verdict; type: cell-based; details: 100 μg/ml alone; oily vaccine environment; previous experiment
Protocol: as §2
For each concentration of preservative (or preservative combination), dilution neutralization and other testing was carried out as disclosed in Example 1. The “TS6” formulation is an oil-in-water emulsion, described in U.S. Pat. No. 7,371,395 B2 (to Merial, Inc.; see especially Example 1). […]

Solubility in buffer = type: physicochemical
Protocol: In some embodiments, buffered solutions containing relatively lower amounts of salts, particularly including phosphate salts, are added to the immunogenic composition, or other preserved multi-dose formulation, to improve the solubility of the octenidine. This is based on Applicants' unexpected discovery that octenidine is less soluble in routinely used phosphate buffered saline (PBS). […] As such, in some embodiments, multi-dose formulations including octenidine contain less phosphate than standard PBS. Accordingly, in some embodiments, the buffer may contain for 100 L about 5 g of NaH2PO4 and about 200 g of Sodium bicarbonate (instead of standard PBS, which contains about a 20:1 ratio of Na2HPO4 to KH2PO4).

[2] = cited from earlier work
panel of pathogens = details: cited from earlier work

## CCCCCCCCN=c1ccn(CCCCCCCCCCn2ccc(=NCCCCCCCC)cc2)cc1.Cl.Cl [Octenidine Dihydrochloride, Octenidine dihydrochloride]
Wound healing
  Cytotoxicity data: demonstrate any adverse effect to wound healing: Cytotoxicity data failed to
Candida albicans; 0.001 mg/mL, 7 d
  log reduction: 4 log
  viable count: 20
Candida albicans; 0.001 mg/mL, 14 d
  log reduction: 4.3 log
  viable count: 10
Candida albicans; 0.001 mg/mL, 28 d
  log reduction: >4.3 log
  viable count: <10
Candida albicans; 0.001 mg/mL, T0
  viable count: 1.7 × 10^5
Candida albicans; 0.01 mg/mL, 7 d
  log reduction: >4.3 log
  viable count: <10
Candida albicans; 0.01 mg/mL, 14 d
  log reduction: >4.3 log
  viable count: <10
Candida albicans; 0.01 mg/mL, 28 d
  log reduction: >4.3 log
  viable count: <10
Candida albicans; 0.01 mg/mL, T0
  viable count: 2 × 10^3
Candida albicans; 0.1 mg/mL, 7 d
  log reduction: >4.3 log
  viable count: <10
Candida albicans; 0.1 mg/mL, 14 d
  log reduction: >4.3 log
  viable count: <10
Candida albicans; 0.1 mg/mL, 28 d
  log reduction: >4.3 log
  viable count: <10
Candida albicans; 0.1 mg/mL, T0
  viable count: <10
Candida albicans; 1 mg/mL, 7 d
  log reduction: >4.3 log
  viable count: <10
Candida albicans; 1 mg/mL, 14 d
  log reduction: >4.3 log
  viable count: <10
Candida albicans; 1 mg/mL, 28 d
  log reduction: >4.3 log
  viable count: <10
Candida albicans; 1 mg/mL, T0
  viable count: <10
Staphylococcus aureus; 0.001 mg/mL, 6 h
  log reduction: 3.8 log
  viable count: 1.6 × 10^2
Staphylococcus aureus; 0.001 mg/mL, 24 h
  log reduction: >5 log
  viable count: <10
Staphylococcus aureus; 0.001 mg/mL, 7 d
  log reduction: 3.7 log
  viable count: 2 × 10^2
Staphylococcus aureus; 0.001 mg/mL, 14 d
  log reduction: 3.9 log
  viable count: 1.4 × 10^2
Staphylococcus aureus; 0.001 mg/mL, 28 d
  log reduction: 4.4 log
  viable count: 40
Staphylococcus aureus; 0.001 mg/mL, T0
  viable count: 1.6 × 10^5
Staphylococcus aureus; 0.01 mg/mL, 6 h
  log reduction: >5 log
  viable count: <10
Staphylococcus aureus; 0.01 mg/mL, 24 h
  log reduction: >5 log
  viable count: <10
Staphylococcus aureus; 0.01 mg/mL, 7 d
  log reduction: >5 log
  viable count: <10
Staphylococcus aureus; 0.01 mg/mL, 14 d
  log reduction: >5 log
  viable count: <10
Staphylococcus aureus; 0.01 mg/mL, 28 d
  log reduction: >5 log
  viable count: <10
Staphylococcus aureus; 0.01 mg/mL, T0
  viable count: 10
Staphylococcus aureus; 0.1 mg/mL, 6 h
  log reduction: >5 log
  viable count: <10^2
Staphylococcus aureus; 0.1 mg/mL, 24 h
  log reduction: >5 log
  viable count: <10^2
Staphylococcus aureus; 0.1 mg/mL, 7 d
  log reduction: >5 log
  viable count: <10^2
Staphylococcus aureus; 0.1 mg/mL, 14 d
  log reduction: >5 log
  viable count: <10^2
Staphylococcus aureus; 0.1 mg/mL, 28 d
  log reduction: >5 log
  viable count: <10^2
Staphylococcus aureus; 0.1 mg/mL, T0
  viable count: <10
Staphylococcus aureus; 1 mg/mL, 6 h
  log reduction: >4 log
  viable count: <10^2
Staphylococcus aureus; 1 mg/mL, 24 h
  log reduction: >4 log
  viable count: <10^2
Staphylococcus aureus; 1 mg/mL, 7 d
  log reduction: >4 log
  viable count: <10^2
Staphylococcus aureus; 1 mg/mL, 14 d
  log reduction: >4 log
  viable count: <10^2
Staphylococcus aureus; 1 mg/mL, 28 d
  log reduction: >4 log
  viable count: <10^2
Staphylococcus aureus; 1 mg/mL, T0
  viable count: <10^2
Aspergillus brasiliensis; 0.001 mg/mL, 7 d
  log reduction: 0 log
  viable count: 1.7 × 10^5
Aspergillus brasiliensis; 0.001 mg/mL, 14 d
  log reduction: 0.1 log
  viable count: 1.4 × 10^5
Aspergillus brasiliensis; 0.001 mg/mL, 28 d
  log reduction: 0.3 log
  viable count: 1.0 × 10^5
Aspergillus brasiliensis; 0.001 mg/mL, T0
  viable count: 2.4 × 10^5
Aspergillus brasiliensis; 0.01 mg/mL, 7 d
  log reduction: 0.7 log
  viable count: 3.8 × 10^4
Aspergillus brasiliensis; 0.01 mg/mL, 14 d
  log reduction: 0.8 log
  viable count: 3.2 × 10^4
Aspergillus brasiliensis; 0.01 mg/mL, 28 d
  log reduction: 0.8 log
Aspergillus brasiliensis; 0.01 mg/mL, T0
  viable count: 2.8 × 10^5
Aspergillus brasiliensis; 0.1 mg/mL, 7 d
  log reduction: 0.4 log
  viable count: 7.5 × 10^4
Aspergillus brasiliensis; 0.1 mg/mL, 14 d
  log reduction: 1.3 log
  viable count: 1.0 × 10^4
Aspergillus brasiliensis; 0.1 mg/mL, 28 d
  log reduction: 0.8 log
  viable count: 2.8 × 10^4
Aspergillus brasiliensis; 0.1 mg/mL, T0
  viable count: 1.7 × 10^5
Aspergillus brasiliensis; 1 mg/mL, 7 d
  log reduction: 0.8 log
  viable count: 2.9 × 10^4
Aspergillus brasiliensis; 1 mg/mL, 14 d
  log reduction: 1 log
  viable count: 1.7 × 10^4
Aspergillus brasiliensis; 1 mg/mL, 28 d
  log reduction: 1.1 log
  viable count: 1.4 × 10^4
Aspergillus brasiliensis; 1 mg/mL, T0
  viable count: 1.6 × 10^5
Pseudomonas aeruginosa; 0.001 mg/mL, 6 h
  log reduction: 3 log
  viable count: 1.0 × 10^3
Pseudomonas aeruginosa; 0.001 mg/mL, 24 h
  log reduction: 3 log
  viable count: 1.0 × 10^4
Pseudomonas aeruginosa; 0.001 mg/mL, 7 d
  log reduction: 0 log
  viable count: >3.3 × 10^6
Pseudomonas aeruginosa; 0.001 mg/mL, 14 d
  log reduction: 0 log
  viable count: >3.3 × 10^6
Pseudomonas aeruginosa; 0.001 mg/mL, 28 d
  log reduction: 0 log
  viable count: >3.3 × 10^6
Pseudomonas aeruginosa; 0.001 mg/mL, T0
  viable count: 7.5 × 10^4
Pseudomonas aeruginosa; 0.01 mg/mL, 6 h
  log reduction: >5.1 log
  viable count: <10
Pseudomonas aeruginosa; 0.01 mg/mL, 24 h
  log reduction: >5.1 log
  viable count: <10
Pseudomonas aeruginosa; 0.01 mg/mL, 7 d
  log reduction: 4.4 log
  viable count: <10
Pseudomonas aeruginosa; 0.01 mg/mL, 14 d
  log reduction: 4.4 log
  viable count: <10
Pseudomonas aeruginosa; 0.01 mg/mL, 28 d
  log reduction: 4.4 log
  viable count: <10
Pseudomonas aeruginosa; 0.01 mg/mL, T0
  viable count: <10
Pseudomonas aeruginosa; 0.1 mg/mL, 6 h
  log reduction: >5.1 log
  viable count: <10
Pseudomonas aeruginosa; 0.1 mg/mL, 24 h
  log reduction: >5.1 log
  viable count: <10
Pseudomonas aeruginosa; 0.1 mg/mL, 7 d
  log reduction: 4.4 log
  viable count: 50
Pseudomonas aeruginosa; 0.1 mg/mL, 14 d
  log reduction: >5.1 log
  viable count: <10
Pseudomonas aeruginosa; 0.1 mg/mL, 28 d
  log reduction: >5.1 log
  viable count: <10
Pseudomonas aeruginosa; 0.1 mg/mL, T0
  viable count: <10
Pseudomonas aeruginosa; 1 mg/mL, 6 h
  log reduction: >5.1 log
  viable count: <10
Pseudomonas aeruginosa; 1 mg/mL, 24 h
  log reduction: >5.1 log
  viable count: <10
Pseudomonas aeruginosa; 1 mg/mL, 7 d
  log reduction: >5.1 log
  viable count: <10
Pseudomonas aeruginosa; 1 mg/mL, 14 d
  log reduction: >5.1 log
  viable count: <10
Pseudomonas aeruginosa; 1 mg/mL, 28 d
  log reduction: >5.1 log
  viable count: <10
Pseudomonas aeruginosa; 1 mg/mL, T0
  viable count: <10
[1]
  preservative efficacy: did not exhibit satisfactory preservative efficacy
Solubility in buffer; routinely used phosphate buffered saline (PBS)
  solubility: less soluble
Solubility in buffer; sodium phosphate replaced with sodium bicarbonate
  solubility: provided the required solubility
[2]
  LD50 on rat: LD50 on rat = 10 mg/kg
Panel of pathogens
  Efficacy: spectrum: Broad spectrum
  MIC: MIC ≤1 μg/ml
